# Measured values published in patent publication US20150299188A1, “HETEROCYCLIC COMPOUND” (priority 2012, published 2015).
# Tested on: FLAP (5-lipoxygenase activating protein)
# Test: In vitro binding test: displacement of [3H]-7-chloro-3-(5-((3-fluoropyridin-2-yl)methoxy)-2-methylphenyl)-3,4-dihydroquinazolin-2(1H)-one from Sf9 microsome fractions
# Set-up: species or system human and mouse
# Conditions: Sf9 microsome fractions expressing FLAP; 100% = radioligand binding with 10 μM sodium 3-(3-(tert-butylsulfanyl)-1-(4-chlorobenzyl)-5-isopropyl-1H-indol-2-yl)-2,2-dimethylpropanoate, 0% = DMSO; test compound concentration not given
# In short: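 Sf9 microsomes expressing human or mouse FLAP (2 μg/mL) preincubated with compound 10 min at room temperature, then 120 nM tritiated quinazolinone ligand added for 60 min; buffer 100 mM Tris-HCl pH 7.5 with NaCl, EDTA, DTT, glycerol, Tween20. Bound ligand filtered and counted by scintillation; 10 μM indole propanoate defines 100% inhibition, DMSO 0%.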
row,Compound,inhibitory rate (%)
1,"Cc1nc(COc2ccc(C)c(N3Cc4ccc(C(C)(C)O)cc4NC3=O)c2)cs1 [Example 226, 7-(2-hydroxypropan-2-yl)-3-(2-methyl-5-((2-methyl-1,3-thiazol-4-yl)methoxy)phenyl)-3,4-dihydroquinazolin-2(1H)-one]",52
2,"Cc1ccc(OCc2ncccc2F)cc1N1Cc2c(Cl)cc(C(=O)NC3CC3)cc2NC1=O [Example 299, 5-chloro-N-cyclopropyl-3-(5-((3-fluoropyridin-2-yl)methoxy)-2-methylphenyl)-2-oxo-1,2,3,4-tetrahydroquinazoline-7-carboxamide]",113
3,"Cc1cc2c(cc1N1Cc3c(Cl)cnc(-c4ccoc4)c3NC1=O)OC(c1ncccc1F)CC2 (stereo not drawn) [Example 164, 5-chloro-3-(2-(3-fluoropyridin-2-yl)-6-methyl-3,4-dihydro-2H-chromen-7-yl)-8-(3-furyl)-3,4-dihydropyrido[3,4-d]pyrimidin-2(1H)-one]",102
4,"O=C1Nc2cc(N3CCCS3(=O)=O)nc(C3CC3)c2CN1c1cc2c(cc1Cl)CCC(c1ncccc1F)O2 (stereo not drawn) [Example 106, 3-(6-chloro-2-(3-fluoropyridin-2-yl)-3,4-dihydro-2H-chromen-7-yl)-5-cyclopropyl-7-(1,1-dioxido-1,2-thiazolidin-2-yl)-3,4-dihydropyrido[4,3-d]pyrimidin-2(1H)-one]",94
5,"O=C1Nc2c(N3CCSCC3)ncc(Cl)c2CN1c1cc2c(cc1Cl)CCC(c1ncccc1F)O2 (stereo not drawn) [Example 130, 5-chloro-3-(6-chloro-2-(3-fluoropyridin-2-yl)-3,4-dihydro-2H-chromen-7-yl)-8-(thiomorpholin-4-yl)-3,4-dihydropyrido[3,4-d]pyrimidin-2(1H)-one]",101
6,"O=C1CCCN1c1cc2c(c(C3CC3)n1)CN(c1cc3c(cc1Cl)CCC(c1ncccc1F)O3)C(=O)N2 (stereo not drawn) [Example 86, 3-(6-chloro-2-(3-fluoropyridin-2-yl)-3,4-dihydro-2H-chromen-7-yl)-5-cyclopropyl-7-(2-oxopyrrolidin-1-yl)-3,4-dihydropyrido[4,3-d]pyrimidin-2(1H)-one]",108
7,"O=C1Nc2cc(N3CCOCC3)nc(C3CC3)c2CN1c1cc2c(cc1Cl)CCC(c1ncccc1F)O2 (stereo not drawn) [Example 59, 3-(6-chloro-2-(3-fluoropyridin-2-yl)-3,4-dihydro-2H-chromen-7-yl)-5-cyclopropyl-7-(morpholin-4-yl)-3,4-dihydropyrido[4,3-d]pyrimidin-2(1H)-one]",107
8,"Cc1cc2c(cc1N1Cc3cccnc3NC1=O)OC(c1ncccc1F)CC2 (stereo not drawn) [Example 40, 3-(2-(3-fluoropyridin-2-yl)-6-methyl-3,4-dihydro-2H-chromen-7-yl)-3,4-dihydropyrido[2,3-d]pyrimidin-2(1H)-one]",108
9,"O=C(NC1COC1)c1cc2c(c(C3CC3)n1)CN(c1cc3c(cc1Cl)CCC(c1ncccc1F)O3)C(=O)N2 (stereo not drawn) [Example 98, 3-(6-chloro-2-(3-fluoropyridin-2-yl)-3,4-dihydro-2H-chromen-7-yl)-5-cyclopropyl-N-(oxetan-3-yl)-2-oxo-1,2,3,4-tetrahydropyrido[4,3-d]pyrimidine-7-carboxamide]",94
10,"O=C(c1cc2c(c(C3CC3)n1)CN(c1cc3c(cc1Cl)CCC(c1ncccc1F)O3)C(=O)N2)N1CC2(COC2)C1 (stereo not drawn) [Example 137, 3-(6-chloro-2-(3-fluoropyridin-2-yl)-3,4-dihydro-2H-chromen-7-yl)-5-cyclopropyl-7-(2-oxa-6-azaspiro[3.3]hept-6-ylcarbonyl)-3,4-dihydropyrido[4,3-d]pyrimidin-2(1H)-one]",104
11,"Cn1nccc1-c1nccc2c1CN(c1cc3c(cc1Cl)CCC(c1ncccc1F)O3)C(=O)N2 (stereo not drawn) [Example 60, 3-(6-chloro-2-(3-fluoropyridin-2-yl)-3,4-dihydro-2H-chromen-7-yl)-5-(1-methyl-1H-pyrazol-5-yl)-3,4-dihydropyrido[4,3-d]pyrimidin-2(1H)-one]",113
12,"CN(C)C(=O)c1cc2c(c(C3CC3)n1)CN(c1cc3c(cc1Cl)CCC(c1ncccc1F)O3)C(=O)N2 (stereo not drawn) [Example 150, 3-(6-chloro-2-(3-fluoropyridin-2-yl)-3,4-dihydro-2H-chromen-7-yl)-5-cyclopropyl-N,N-dimethyl-2-oxo-1,2,3,4-tetrahydropyrido[4,3-d]pyrimidine-7-carboxamide]",98
13,"Cn1cc(-c2ncc(Cl)c3c2NC(=O)N(c2cc4c(cc2Cl)CCC(c2ncccc2F)O4)C3)cn1 (stereo not drawn) [Example 102, 5-chloro-3-(6-chloro-2-(3-fluoropyridin-2-yl)-3,4-dihydro-2H-chromen-7-yl)-8-(1-methyl-1H-pyrazol-4-yl)-3,4-dihydropyrido[3,4-d]pyrimidin-2(1H)-one]",101
14,"Cc1cnn(-c2cc3c(c(C4CC4)n2)CN(c2cc4c(cc2C)CCC(c2ncccc2F)O4)C(=O)N3)c1 (stereo not drawn) [Example 133, 5-cyclopropyl-3-(2-(3-fluoropyridin-2-yl)-6-methyl-3,4-dihydro-2H-chromen-7-yl)-7-(4-methyl-1H-pyrazol-1-yl)-3,4-dihydropyrido[4,3-d]pyrimidin-2(1H)-one]",100
15,"O=C1NCCN1c1cc2c(c(C3CC3)n1)CN(c1cc3c(cc1Cl)CCC(c1ncccc1F)O3)C(=O)N2 (stereo not drawn) [Example 131, 3-(6-chloro-2-(3-fluoropyridin-2-yl)-3,4-dihydro-2H-chromen-7-yl)-5-cyclopropyl-7-(2-oxoimidazolidin-1-yl)-3,4-dihydropyrido[4,3-d]pyrimidin-2(1H)-one]",101
16,"Cc1cc2c(cc1N1Cc3c(ccnc3C(=O)NC3CC3)NC1=O)OC(c1ncccc1F)CC2 (stereo not drawn) [Example 32, N-cyclopropyl-3-(2-(3-fluoropyridin-2-yl)-6-methyl-3,4-dihydro-2H-chromen-7-yl)-2-oxo-1,2,3,4-tetrahydropyrido[4,3-d]pyrimidine-5-carboxamide]",101
17,"CC(C)(O)c1nccc2c1CN(c1cc3c(cc1Cl)CCC(c1ncccc1F)O3)C(=O)N2 (stereo not drawn) [Example 84, 3-(6-chloro-2-(3-fluoropyridin-2-yl)-3,4-dihydro-2H-chromen-7-yl)-5-(2-hydroxypropan-2-yl)-3,4-dihydropyrido[4,3-d]pyrimidin-2(1H)-one]",106
18,"O=C1Nc2ccnc(Cl)c2CN1c1ccc2c(c1)OC(c1ncccc1F)CC2 (stereo not drawn) [Example 28, 5-chloro-3-(2-(3-fluoropyridin-2-yl)-3,4-dihydro-2H-chromen-7-yl)-3,4-dihydropyrido[4,3-d]pyrimidin-2(1H)-one]",98
19,"Cc1ncc(Cl)c2c1NC(=O)N(c1cc3c(cc1Cl)CCC(c1ncccc1F)O3)C2 (stereo not drawn) [Example 7, 5-chloro-3-(6-chloro-2-(3-fluoropyridin-2-yl)-3,4-dihydro-2H-chromen-7-yl)-8-methyl-3,4-dihydropyrido[3,4-d]pyrimidin-2(1H)-one]",98

# Second part, the compound after the results:
row,inhibitory rate (%),Compound
1,101,"Cc1ccc(OCc2ncccc2F)cc1N1Cc2ccc(C(F)(F)F)cc2NC1=O [Example 275, 3-(5-((3-fluoropyridin-2-yl)methoxy)-2-methylphenyl)-7-(trifluoromethyl)-3,4-dihydroquinazolin-2(1H)-one]"
2,97,"Cc1ccc(OCc2ncccc2F)cc1-n1c(=O)[nH]c2cccc(C(F)(F)F)c2c1=O [Example 370, 3-(5-((3-fluoropyridin-2-yl)methoxy)-2-methylphenyl)-5-(trifluoromethyl)quinazoline-2,4(1H,3H)-dione]"
3,106,"Cc1ccc(OCc2ncccc2F)cc1-n1c(=O)[nH]c2ccncc2c1=O [Example 369, 3-(5-((3-fluoropyridin-2-yl)methoxy)-2-methylphenyl)pyrido[4,3-d]pyrimidine-2,4(1H,3H)-dione]"
4,97,"Cc1ccc(OCc2ncccc2F)cc1N1Cc2c(ccnc2C(N)=O)NC1=O [Example 322, 3-(5-((3-fluoropyridin-2-yl)methoxy)-2-methylphenyl)-2-oxo-1,2,3,4-tetrahydropyrido[4,3-d]pyrimidine-5-carboxamide]"
5,50,"O=c1[nH]c2ccccc2c(=O)n1-c1cc(OCc2c(F)cccc2F)ccn1 [Example 324, 3-(4-((2,6-difluorobenzyl)oxy)pyridin-2-yl)quinazoline-2,4(1H,3H)-dione]"
6,62,"Cc1ccc(OCc2c(F)cccc2F)cc1N1Cc2cc(CO)ccc2NC1=O [Example 186, 3-(5-((2,6-difluorobenzyl)oxy)-2-methylphenyl)-6-(hydroxymethyl)-3,4-dihydroquinazolin-2(1H)-one]"
7,91,"Cc1ccc(OCc2c(F)cccc2F)cc1N1Cc2ccccc2NC1=O [Example 170, 3-(5-((2,6-difluorobenzyl)oxy)-2-methylphenyl)-3,4-dihydroquinazolin-2(1H)-one]"
8,101,"Cc1ccc(OCc2ncccc2F)cc1N1Cc2nn(CC3CC3)cc2NC1=O [Example 276, 2-(cyclopropylmethyl)-6-(5-((3-fluoropyridin-2-yl)methoxy)-2-methylphenyl)-2,4,6,7-tetrahydro-5H-pyrazolo[4,3-d]pyrimidin-5-one]"
9,97,"Cc1ccc(OCc2c(F)cccc2F)cc1N1Cc2c(CO)cccc2NC1=O [Example 195, 3-(5-((2,6-difluorobenzyl)oxy)-2-methylphenyl)-5-(hydroxymethyl)-3,4-dihydroquinazolin-2(1H)-one]"
10,101,"O=c1[nH]c2cn(CC3CC3)nc2c(=O)n1-c1cc(OCc2ncccc2F)ccc1Br [Example 358, 6-(2-bromo-5-((3-fluoropyridin-2-yl)methoxy)phenyl)-2-(cyclopropylmethyl)-2H-pyrazolo[4,3-d]pyrimidine-5,7(4H,6H)-dione]"
11,64,"O=C1Nc2ccccc2CN1c1cc(OCc2ncccc2F)ccc1CN1CCOCC1 [Example 313, 3-(5-((3-fluoropyridin-2-yl)methoxy)-2-(morpholin-4-ylmethyl)phenyl)-3,4-dihydroquinazolin-2(1H)-one]"
